Measured values: US20220296613A1, “FOOD-INDEPENDENT DOSING OF CV-10155 TO TREAT GABAA DISORDERS” (priority 2021, published 2022)
pEC50: −log10 of the molar value. Read-outs that look alike come from different tables or passages of the source.

Key:
[1] = dog, in vivo, 1 mg/kg
α1β2γ2 GABAA receptors = α1β2γ2 GABAA receptors (Homo sapiens, UniProt P14867+P47870); test: Synchropatch electrophysiology, potentiation of synaptic GABAA receptors; assay type: cell-based; conditions: for Emax: α1β2γ2 Synaptic receptors, Synchropatch electrophysiology, read-out: Emax - efficacy: % of potentiation
Sequence of α1β2γ2 GABAA receptors (P14867 28-456): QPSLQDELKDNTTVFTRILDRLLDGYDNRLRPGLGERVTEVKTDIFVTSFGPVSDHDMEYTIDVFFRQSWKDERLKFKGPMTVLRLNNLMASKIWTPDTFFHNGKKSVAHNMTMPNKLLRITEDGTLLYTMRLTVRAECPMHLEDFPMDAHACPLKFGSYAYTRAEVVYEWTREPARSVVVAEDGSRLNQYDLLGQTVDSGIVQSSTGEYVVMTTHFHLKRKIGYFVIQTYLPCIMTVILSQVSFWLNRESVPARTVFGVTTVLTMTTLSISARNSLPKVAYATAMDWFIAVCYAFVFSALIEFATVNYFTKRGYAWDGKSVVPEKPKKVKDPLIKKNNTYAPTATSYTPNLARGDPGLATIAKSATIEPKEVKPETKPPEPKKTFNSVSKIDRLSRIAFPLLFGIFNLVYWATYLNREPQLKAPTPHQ
Sequence of α1β2γ2 GABAA receptors (P47870 25-512 limits assumed): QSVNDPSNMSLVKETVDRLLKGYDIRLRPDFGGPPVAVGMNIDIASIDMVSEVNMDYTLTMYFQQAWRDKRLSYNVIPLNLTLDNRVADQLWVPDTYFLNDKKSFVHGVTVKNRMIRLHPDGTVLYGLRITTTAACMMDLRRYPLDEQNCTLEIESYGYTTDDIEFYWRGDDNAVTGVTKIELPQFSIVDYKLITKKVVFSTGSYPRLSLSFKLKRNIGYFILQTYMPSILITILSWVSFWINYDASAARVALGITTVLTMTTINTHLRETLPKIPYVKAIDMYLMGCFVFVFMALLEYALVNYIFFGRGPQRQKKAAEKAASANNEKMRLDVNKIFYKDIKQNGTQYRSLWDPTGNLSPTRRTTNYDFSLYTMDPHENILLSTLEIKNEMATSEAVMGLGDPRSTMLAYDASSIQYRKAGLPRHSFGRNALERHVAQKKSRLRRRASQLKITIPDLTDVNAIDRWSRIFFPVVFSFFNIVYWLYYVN
Sequence of α1β2γ2 GABAA receptors (P18507 40-475 partner): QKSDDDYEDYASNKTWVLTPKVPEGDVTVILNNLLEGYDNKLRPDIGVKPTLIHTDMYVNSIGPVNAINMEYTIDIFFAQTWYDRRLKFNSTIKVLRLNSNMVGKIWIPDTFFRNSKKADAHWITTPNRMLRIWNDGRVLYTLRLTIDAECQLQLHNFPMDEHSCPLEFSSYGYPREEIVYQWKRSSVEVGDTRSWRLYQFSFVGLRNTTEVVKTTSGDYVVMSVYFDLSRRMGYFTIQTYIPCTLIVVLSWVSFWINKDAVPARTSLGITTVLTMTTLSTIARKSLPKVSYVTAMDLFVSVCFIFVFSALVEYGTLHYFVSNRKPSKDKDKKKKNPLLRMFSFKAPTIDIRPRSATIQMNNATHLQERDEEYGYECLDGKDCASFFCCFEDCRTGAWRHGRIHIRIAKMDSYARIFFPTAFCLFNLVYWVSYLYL

α4β3δ GABAA receptors = α4β3δ GABAA receptors (Homo sapiens, UniProt P28472+P48169); test: Synchropatch electrophysiology, potentiation of extra synaptic GABAA receptors; assay type: cell-based
Sequence of α4β3δ GABAA receptors (P48169 36-554): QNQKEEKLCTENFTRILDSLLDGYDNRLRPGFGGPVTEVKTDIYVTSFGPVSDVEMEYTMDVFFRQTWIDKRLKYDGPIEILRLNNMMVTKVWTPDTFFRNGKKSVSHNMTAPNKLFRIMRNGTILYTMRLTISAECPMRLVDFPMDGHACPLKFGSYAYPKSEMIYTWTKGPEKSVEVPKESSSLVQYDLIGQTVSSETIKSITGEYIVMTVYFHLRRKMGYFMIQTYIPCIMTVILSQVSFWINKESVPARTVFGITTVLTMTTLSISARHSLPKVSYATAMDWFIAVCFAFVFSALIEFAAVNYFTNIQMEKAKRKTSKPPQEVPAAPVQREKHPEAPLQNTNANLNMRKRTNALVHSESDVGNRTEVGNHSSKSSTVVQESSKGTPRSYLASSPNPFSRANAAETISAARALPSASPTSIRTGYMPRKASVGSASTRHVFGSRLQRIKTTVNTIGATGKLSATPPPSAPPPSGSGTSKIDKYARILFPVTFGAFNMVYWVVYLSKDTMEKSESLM
Sequence of α4β3δ GABAA receptors (P28472 26-473): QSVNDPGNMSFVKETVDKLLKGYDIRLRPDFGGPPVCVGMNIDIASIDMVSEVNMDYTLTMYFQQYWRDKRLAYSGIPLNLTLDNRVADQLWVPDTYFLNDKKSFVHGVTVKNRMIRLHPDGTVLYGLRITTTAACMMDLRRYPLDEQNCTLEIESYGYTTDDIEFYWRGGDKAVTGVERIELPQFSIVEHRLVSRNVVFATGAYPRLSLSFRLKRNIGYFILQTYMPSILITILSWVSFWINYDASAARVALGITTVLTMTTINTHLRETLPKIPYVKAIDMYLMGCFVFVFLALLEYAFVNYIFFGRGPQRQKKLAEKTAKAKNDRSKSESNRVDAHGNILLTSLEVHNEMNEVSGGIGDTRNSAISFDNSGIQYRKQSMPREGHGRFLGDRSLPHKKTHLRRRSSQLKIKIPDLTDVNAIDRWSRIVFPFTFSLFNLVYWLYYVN
Sequence of α4β3δ GABAA receptors (O14764 25-452 partner): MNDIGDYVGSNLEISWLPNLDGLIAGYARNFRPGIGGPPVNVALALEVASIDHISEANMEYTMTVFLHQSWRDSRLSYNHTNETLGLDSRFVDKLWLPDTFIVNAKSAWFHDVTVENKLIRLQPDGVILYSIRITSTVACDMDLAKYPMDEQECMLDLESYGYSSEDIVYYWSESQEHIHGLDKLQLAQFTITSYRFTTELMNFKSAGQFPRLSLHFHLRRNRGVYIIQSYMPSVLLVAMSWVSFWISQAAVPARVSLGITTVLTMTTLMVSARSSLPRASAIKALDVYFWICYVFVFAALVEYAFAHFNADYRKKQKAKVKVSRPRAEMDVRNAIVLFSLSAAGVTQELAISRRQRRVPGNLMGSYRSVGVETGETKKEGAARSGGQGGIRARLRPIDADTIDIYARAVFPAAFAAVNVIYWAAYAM

Forced swim test = Forced swim test - Depression; assay type: in vivo, rodent; conditions: preclinical animal model
[2] = humans, cited from earlier work
[3] = humans, cited from earlier work; remark: listed apart in the source
[4] = humans, cited from earlier work; remark: listed apart in the source
[5] = 30 mg, day 7 MAD (MTD), morning dosing

C[C@@]1(O)CC[C@@]2(C)[C@@H](CC[C@@H]3[C@@H]2CC[C@]2(C)[C@@H](C(=O)Cn4cc(C#N)cn4)CC[C@@H]32)C1 [CV-10155 (30% HPbCD)]
Cmax ([1]; iv): 1732 ng/mL | T½ ([1]; iv): 13.93 h | Cmax ([1]; po): 510 ng/mL | Tmax ([1]; po): 0.75 h | T½ ([1]; po): 13.62 h

C[C@@]1(O)CC[C@@]2(C)[C@@H](CC[C@@H]3[C@@H]2CC[C@]2(C)[C@@H](C(=O)Cn4cc(C#N)cn4)CC[C@@H]32)C1 [CV-10155 (Labrosol)]
Cmax ([1]; po): 266 ng/mL | Tmax ([1]; po): 0.625 h | T½ ([1]; po): 18.93 h

CC(=O)[C@H]1CC[C@H]2[C@@H]3CC[C@H]4C[C@](C)(O)CC[C@]4(C)[C@H]3CC[C@]12C [Ganaxolone, ganaxolone]
pEC50 (α1β2γ2 GABAA receptors): 7.05 | Emax (α1β2γ2 GABAA receptors): 745% | pEC50 (α4β3δ GABAA receptors): 6.67

C[C@@]1(O)CC[C@H]2[C@H](CC[C@@H]3[C@@H]2CC[C@]2(C)[C@@H](C(=O)Cn4cc(C#N)cn4)CC[C@@H]32)C1 [Sage-217]
pEC50 (α1β2γ2 GABAA receptors): 6.72 | Emax (α1β2γ2 GABAA receptors): 1000% | pEC50 (α4β3δ GABAA receptors): 6.83 | Forced swim test - Depression: doses tested, * = significantly efficacious dose (Forced swim test): 1 - 3* mg/kg | Any adverse event, % ([2]; 20 mg (n-188)): 50.0% | Diarrhea, % ([2]; 20 mg (n-188)): 5.9% | Dizziness, % ([2]; 20 mg (n-188)): 7.4% | Fatigue, % ([2]; 20 mg (n-188)): 1.6% | Headache, % ([2]; 20 mg (n-188)): 11.2% | Nausea, % ([2]; 20 mg (n-188)): 5.3% | Sedation, % ([2]; 20 mg (n-188)): 5.9% | Somnolence, % ([2]; 20 mg (n-188)): 5.9% | Any adverse event, % ([2]; 30 mg (n-192)): 54.2% | Diarrhea, % ([2]; 30 mg (n-192)): 6.3% | Dizziness, % ([2]; 30 mg (n-192)): 5.7% | Fatigue, % ([2]; 30 mg (n-192)): 6.8% | Headache, % ([2]; 30 mg (n-192)): 6.3% | Nausea, % ([2]; 30 mg (n-192)): 3.6% | Sedation, % ([2]; 30 mg (n-192)): 4.7% | Somnolence, % ([2]; 30 mg (n-192)): 6.8% | ratio of Cmax/trough on day 7 ([3]; 30 mg daily in the evening in a fed state): 5.88 | AUC0_inf [3, 5]: 833.2 h*ng/m1 | Cmax [3, 5]: 115.2 ng/mL | Cmin [3, 5]: 12.46 ng/mL | Ratio (Cmax/Cmin) [3, 5]: 9.24 | T1/2 [3, 5]: 15.27 h | Tmax [3, 5]: 1 h | MTD, multiple ascending dose (MAD) ([3]; morning dosing): SAGE-217 30mg | AUC(0-inf) ([4]; 55 mg SAD MTD): 1633 ng·h/mL | Cmax ([4]; 55 mg SAD MTD): 149.9 ng/mL | T1/2 ([4]; 55 mg SAD MTD): 17.02 h | Tmax ([4]; 55 mg SAD MTD): 1.24 h | MTD, single ascending dose (SAD) [4]: SAGE-217 55 mg SAD MTD
